US6624199B1, “Aminobenzophenones” (Leo Pharmaceuticals Products Ltd. A/S, priority 1999, dated 2003)
“Also recorded” adds a separate entry of the source. Read-outs that look alike come from different tables or passages of the source.

What was measured:
[1] = tested on: TPA-induced chronic skin inflammation in the mouse ear; test: Model 2: TPA-induced chronic skin inflammation in the mouse ear; type: in vivo; conditions: topical in acetone twice daily day 8-10, once day 11, 0.5 mg/ear (all-trans retinoic acid 0.01 mg/ear)
Protocol: (§1) For in vivo assays, the test compounds were dissolved in acetone. Adapalene was tested as a gel formulation (Differin gel 0.1%, 20-30 mg/treatment). The screening doses were 0.5 mg/ear in model 1 and 2. Exception was all-trans retinoic acid (0.01 mg/ear).
Model 2. Tpa-induced Chronic Skin Inflammation in the Mouse Ear
AIM Compounds with anti-inflammatory effects in this model may be useful in treating chronic skin disorders in man.
METHODS In groups of 5-6 mice, ear inflammation is induced by multiple topical applications of TPA on alternate days during a 10-day period. The resulting inflammation is treated topically with compounds in acetone solution twice daily on day 8, 9 and 10 and once on day 11. Ear thickness (ET) is determined 5-6 hours after the last drug administration, the mice are sacrificed and myeloperoxidase (MPO) activity (=PMN-infiltration) is determined in ear biopsies, cf. De Young, L. M. et al, Agents Actions, 26, 335-341 (1989); Carlson, R. P. et al, Agents Actions, 17, 197-204 (1985); Alford, J. G. et al, Agents Action, 37, (1992); Stanley, P. L. et at, Skin Pharmacol, 4, 262-271 (1991).
RESULTS Results are recorded as % change from control group using the formula: 100(T/C-1) where T=mean ET/MPO treated group and C=mean ET/MPO control group. Negative figures represent inhibition and positive stimulation. The level of significance is set at p<0.05 using the Mann-Whitney's U-test. Significant stimulation is stated.

[2] = tested on: Oxazolone-induced contact dermatitis in the mouse ear; test: Model 1: oxazolone-induced contact dermatitis in the mouse ear; type: in vivo; conditions: topical in acetone 30 min post-challenge, 0.5 mg/ear (all-trans retinoic acid 0.01 mg/ear)
Protocol: as §1
Model 1. Oxazolone-induced Contact Dermatitis in the Mouse Ear
AIM Compounds with anti-inflammatory effects in this model may be useful in treating contact eczema in man.
METHODS Groups of 5-6 mice sensitised to oxazolone 4 days before challenge with oxazolone to the right ear. The resulting oedema (right ear thickness minus left ear thickness) is measured 24, 48 and 72 hours post-challenge (PC), and neutrophil (PMN) influx is determined by the myeloperoxidase (MPO) method 72 hours post-challenge in ear biopsies. The screening dose is 0.5 mg/ear or less applied to the right ear 30 min post-challenge (+30 min). Other dosing regimes are stated.
RESULTS Results are recorded as % change from control animals using the formula: 100(T/C-1) where T=mean Oedema/MPO treated group and C=mean Oedema/MPO control group. Negative figures represent inhibition and positive stimulation. The level of significance is set at p<0.05 using the Mann-Whitney's U-test. Significant stimulation is stated.

[3] = tested on: utriculi (pseudocomedones) of rhino mouse skin; test: Rhino mouse model (comedolytic and hyperplastic potency, skin irritation); conditions: for Skin irritation YES/NO / % increase in epidermal thickness / % reduction in number of utriculi: once daily for three weeks; for comedolytic effect (reduction in number of utriculi), in words / epidermal hyperplasia (increase in epidermal thickness and follicular epithelia), in words: 1.5% concentration in acetone, three weeks; for clinical visible skin irritancy, in words: three weeks treatment period
Protocol: (§2) The rhino mouse is an in vivo model for the study of hyperplastic and comedolytic potency of various drugs used in the treatment of acne. The rhino mouse has follicles on the skin. The orifices are distended with horny material and these structures resembles human microcomedones and are referred to as utriculi or pseudocomedones.
(§3) In the present study the effect of a number of compounds were evaluated in the rhino mouse model. […] Additionally a number of marketed products used today for treatment of acne were selected and included for comparison.
(§4) The animals were treated once daily for three weeks including weekends. […] Histological evaluation of the skin was performed at the end of the treatment period.

[4] = cited from earlier work
[5] = tested on: utriculi (pseudocomedones) of rhino mouse skin; conditions: in vivo
Protocol: as §2, §3, §4

[6] = 20 μg/ml in ethanol, period 1, versus vehicle control
[7] = 1.5% in acetone, versus vehicle control
[8] = Basiron gel 5%, versus untreated controls
[9] = Basiron gel 10%, versus untreated controls
[10] = Differin gel 0.1%, versus untreated controls
[11] = Skinoren cream 20%, versus untreated controls

CC1=C(/C=C/C(C)=C/C=C/C(C)=C/C(=O)O)C(C)(C)CCC1 [All-trans retinoic acid]
SCORE TPA Ear swelling [1]: 0 (% inhibition ET <25) | SCORE OXA Oedema 48 hours p.c. [2]: 0 (% inhibition Oedema 48 h PC < 25) | Skin irritation YES/NO ([3]; 20 μg/ml in ethanol, period 1): YES | % increase in epidermal thickness [3, 6]: 110% | % reduction in number of utriculi [3, 6]: 81.5% | Anti-inflam. ([4]; topical administration): No | Antibacterial ([4]; topical administration): No | Comedolytic ([4]; topical administration): Yes | Potential irritant ([4]; topical administration): Yes | Teratogenic ([4]; topical administration): Maybe

CCC[C@@H]1C[C@@H](C(=O)N[C@@H]([C@H]2O[C@H](SC)[C@H](O)[C@@H](O)[C@H]2O)[C@H](C)Cl)N(C)C1 [Clindamycin]
Teratogenic ([4]; topical administration): Probably

CN(C)c1ccc(O)c2c1C[C@H]1C[C@H]3[C@H](N(C)C)C(O)=C(C(N)=O)C(=O)[C@@]3(O)C(O)=C1C2=O [Minocyclin]
Anti-inflam. ([4]; systemic administration): Yes | Antibacterial ([4]; systemic administration): Yes | Comedolytic ([4]; systemic administration): No | Teratogenic ([4]; systemic administration): Yes

CCOC(=O)Nc1ccccc1Nc1ccc(C(=O)c2ccccc2C)c(Cl)c1 [Compound 106, ethyl N-(2-(4-(2-methylbenzoyl)-3-chlorophenylamino)phenyl)carbamate]
SCORE TPA Ear swelling [1]: 2 (% inhibition ET ≧40 p < 0.05) | SCORE OXA Oedema 48 hours p.c. [2]: 2 (% inhibition Oedema 48 h PC ≧ 35 p < 0.05) | comedolytic effect (reduction in number of utriculi), in words [3]: comedolytic effect | epidermal hyperplasia (increase in epidermal thickness and follicular epithelia), in words [3]: epidermal hyperplasia | comedolytic effect (reduction in number of utriculi), in words ([3]; listed as ethyl N-(2-(4-(2-methylbenzoyl)-3-chlorophenylamino)phenyl)carbamate): comedolytic activity | % increase in epidermal thickness [3, 7]: 146% | % reduction in number of utriculi [3, 7]: 38.3% | clinical visible skin irritancy, in words [3]: without concomitant skin irritancy

CN(C)[C@@H]1C(=O)C(C(N)=O)=C(O)[C@@]2(O)C(=O)C3=C(O)c4c(O)cccc4[C@@](C)(O)[C@H]3C[C@@H]12 [Tetracyclin]
Anti-inflam. ([4]; systemic administration): Yes | Antibacterial ([4]; systemic administration): Yes | Comedolytic ([4]; systemic administration): No | Potential irritant ([4]; systemic administration): No | Teratogenic ([4]; systemic administration): Yes

Cc1ccccc1C(=O)c1ccc(Nc2ccc(F)cc2N)cc1Cl [Compound 102, 4-(2-Amino-4-fluorophenylamino)-2-chloro-2′-methylbenzophenone]
comedolytic effect (reduction in number of utriculi), in words [3]: comedolytic effect | epidermal hyperplasia (increase in epidermal thickness and follicular epithelia), in words [3]: epidermal hyperplasia

CC1=C(/C=C/C(C)=C/C=C/C(C)=C\C(=O)O)C(C)(C)CCC1 [Isotretinoin]
Anti-inflam. ([4]; systemic administration): Yes | Antibacterial ([4]; systemic administration): Yes | Comedolytic ([4]; systemic administration): Yes | Potential irritant ([4]; systemic administration): Yes | Teratogenic ([4]; systemic administration): Yes

Cc1ccccc1C(=O)c1ccc(Nc2ccc(Br)cc2N)cc1Cl [Compound 101, 4-(2-Amino-4-bromophenylamino)-2-chloro-2′-methylbenzophenone]
SCORE TPA Ear swelling [1]: 3 (% inhibition ET ≧50 p < 0.05) | SCORE OXA Oedema 48 hours p.c. [2]: 2 (% inhibition Oedema 48 h PC ≧ 35 p < 0.05) | comedolytic effect (reduction in number of utriculi), in words [3]: comedolytic effect; also recorded: most pronounced comedolytic activity | epidermal hyperplasia (increase in epidermal thickness and follicular epithelia), in words [3]: epidermal hyperplasia | % increase in epidermal thickness [3, 7]: 203% | % reduction in number of utriculi [3, 7]: 67.4% | clinical visible skin irritancy, in words [3]: without concomitant skin irritancy

O=C(OOC(=O)c1ccccc1)c1ccccc1 [Benzoyl peroxide]
SCORE TPA Ear swelling [1]: 0 (% inhibition ET <25) | SCORE OXA Oedema 48 hours p.c. [2]: 0 (% inhibition Oedema 48 h PC < 25) | Skin irritation YES/NO ([3]; Basiron gel 5%): YES | % increase in epidermal thickness [3, 8]: 178% | % reduction in number of utriculi [3, 8]: 46.1% | Skin irritation YES/NO ([3]; Basiron gel 10%): YES | % increase in epidermal thickness [3, 9]: 190% | % reduction in number of utriculi [3, 9]: 62.1% | Anti-inflam. ([4]; topical administration): Maybe | Antibacterial ([4]; topical administration): Yes | Comedolytic ([4]; topical administration): Some- | Potential irritant ([4]; topical administration): Yes

Cc1ccccc1C(=O)c1ccc(Nc2ccccc2N)cc1Cl [Compound 103, 4-(2-aminophenylamino)-2-chloro-2′-methylbenzophenone]
SCORE TPA Ear swelling [1]: 2 (% inhibition ET ≧40 p < 0.05) | SCORE OXA Oedema 48 hours p.c. [2]: 2 (% inhibition Oedema 48 h PC ≧ 35 p < 0.05) | comedolytic effect (reduction in number of utriculi), in words [3]: comedolytic effect | epidermal hyperplasia (increase in epidermal thickness and follicular epithelia), in words [3]: epidermal hyperplasia | comedolytic effect (reduction in number of utriculi), in words ([3]; listed as 4-(2-aminophenylamino)-2-chloro-2′-methylbenzophenone): comedolytic activity | % increase in epidermal thickness [3, 7]: 120% | % reduction in number of utriculi [3, 7]: 52.5% | clinical visible skin irritancy, in words [3]: without concomitant skin irritancy

COc1ccc(-c2ccc3cc(C(=O)O)ccc3c2)cc1C12CC3CC(CC(C3)C1)C2 [Adapalene]
Skin irritation YES/NO ([3]; Differin gel 0.1%): YES | % increase in epidermal thickness [3, 10]: 202% | % reduction in number of utriculi [3, 10]: 92.7%

CC[C@H]1OC(=O)[C@H](C)[C@@H](O[C@H]2C[C@@](C)(OC)[C@@H](O)[C@H](C)O2)[C@H](C)[C@@H](O[C@@H]2O[C@H](C)C[C@H](N(C)C)[C@H]2O)[C@](C)(O)C[C@@H](C)C(=O)[C@H](C)[C@@H](O)[C@]1(C)O [Erythromycin]
SCORE TPA Ear swelling [1]: 1 (% inhibition ET ≧25 p < 0.05) | SCORE OXA Oedema 48 hours p.c. [2]: 0 (% inhibition Oedema 48 h PC < 25)

O=C(O)CCCCCCCC(=O)O [Azelaic acid]
SCORE TPA Ear swelling [1]: 0 (% inhibition ET <25) | SCORE OXA Oedema 48 hours p.c. [2]: 0 (% inhibition Oedema 48 h PC < 25) | % increase in epidermal thickness [3, 11]: 75% | % reduction in number of utriculi [3, 11]: 5.7% | Skin irritation YES/NO [5]: NO | Anti-inflam. ([4]; topical administration): Maybe | Antibacterial ([4]; topical administration): Yes | Comedolytic ([4]; topical administration): Yes | Potential irritant ([4]; topical administration): Yes | Teratogenic ([4]; topical administration): No

C[C@H]1c2cccc(O)c2C(O)=C2C(=O)[C@]3(O)C(O)=C(C(N)=O)C(=O)[C@@H](N(C)C)[C@@H]3[C@@H](O)[C@@H]21 [Doxycyclin]
Anti-inflam. ([4]; systemic administration): Yes | Antibacterial ([4]; systemic administration): Yes | Comedolytic ([4]; systemic administration): No | Potential irritant ([4]; systemic administration): No | Teratogenic ([4]; systemic administration): Yes
